The nature of data set [1]: Metabolic stability test in hepatocytes, human. The data set is classed as in vitro ADME. Particulars: hepatocytes (suspension), Table 5: metabolic stability in hepatocytes, up to 90 min, read-out: Metabolic half-life in human liver microsome (T½, min). The procedure: This experimental example was used to test the metabolic stability of the compounds in hepatocytes.
A suspension of hepatocytes was prepared at 0.5×10^6/mL with a pre-heated medium, then 198 μL of the pre-heated cell suspension was added to a 96-well plate. To each well of the 96-well plate, 2 μL of the test compound was added so that the final concentration was 1 μM, and 2 replicate wells were set. For the T=0 min sample, the compound was mixed well with the cells for 1 min, then […] was immediately added to 125 μL of a stop solution (an acetonitrile solution containing 200 ng/mL tolbutamide and 200 ng/mL labetalol) under an ice bath and mixed well. At the same time, all the plates were placed in an incubator at 37° C. with 5% CO2, with the shaker set at 600 rpm. The sample was mixed well at 15, 30, 60, and 90 min of incubation, respectively, and 25 μL of the sample was added to 125 μL of a stop solution (an acetonitrile solution containing 200 ng/mL tolbutamide and 200 ng/mL labetalol) under an ice bath, mixed well, and shaken at 500 rpm for 10 min. Subsequently, the plate was centrifuged for 20 min at 3220×g at 4° C. […] Subsequently, analysis was carried out using LC-MS/MS, and intrinsic clearance (CLint) and half-life (T½) were calculated.
For orientation: Microsomes from liver hold many membrane-bound enzymes, among them those of drug oxidation.

Data set [2] concerns Human pancreatic cancer cells KP-4. The data set can be described thus: Mouse xenograft tumor pharmacodynamic model, KP-4. The data set is classed as in vivo. Particulars: KP-4 xenograft, 29 days of administration. The protocol: In this example, the in vivo efficacy of the compound in a mouse xenograft tumor model after intragastric (PO) administration was tested.
Human pancreatic cancer cells KP-4 were cultured in monolayer in vitro under the condition of 1640 medium containing […] and […] and streptomycin, and the culture was carried out at 37° C. with 5% CO2. The cells were digested with trypsin three times a week for passaging. When the saturation degree of the cells was 80-90%, the cells were collected, counted and inoculated. 0.1 mL (5×10^6 cells) of KP-4 cells were subcutaneously inoculated on the right back of each mouse. On day 34 after inoculation of the cells, the mean tumor volume reached 154 mm^3. The mice were randomly grouped for administration and intragastrically dosed once daily. Changes in body weight and tumor volume were recorded. After 29 days of administration, the experiment was ended. Tumor volume changes and mouse body weight changes were counted and analyzed. AG270 (CAS: 2201056-66-6) was the positive control compound.

Data set [3] is described as follows: Stability test in liver microsomes, rat. The data set is classed as in vitro ADME, Sprague-Dawley rats. Conditions: Sprague-Dawley; rat liver microsomes 0.5 mg/mL, 1.0 μM substrate, up to 60 min; read-out: Metabolic half-life in rat liver microsome (T½, min).
In a further data set the target is T1, CYP2C19 (Homo sapiens, UniProt P33261).
T1 construct: from tissue; host or cells: liver microsome
The data set can be described thus: Cytochrome oxidase P450 inhibition test, CYP2C19. The data set is classed as in vitro ADME. Conditions: liver microsome incubation. The protocol:
(§1) 100 mM K-Buffer: 9.5 mL of stock solution A was mixed with 40.5 mL of stock solution B, the total volume was adjusted to […] with ultrapure water, and the buffer was titrated to pH 7.4 with KOH or H3PO4. • Starting material A (1 M potassium dihydrogen phosphate): 136.5 g of potassium dihydrogen phosphate in 1 L of water. • Stock B […] in 1 L of water. The test substance powder was prepared into a stock solution with a certain concentration using DMSO or other organic solvents, which was then further diluted using a proper organic solvent. The extracorporeal incubation system for CYP450 enzyme metabolism phenotype study was biochemical reaction of a prepared liver microsome, a redox coenzyme, and an enzyme-specific selective inhibitor in simulated physiological temperature and environment. The concentration of the parent drug or a metabolite thereof in the incubation solution was determined by LC-MS/MS.

The target in the next data set is T2, CYP1A2 (Homo sapiens, UniProt P05177).
T2 construct: from tissue; host or cells: liver microsome
T2 sequence (P05177 1-516): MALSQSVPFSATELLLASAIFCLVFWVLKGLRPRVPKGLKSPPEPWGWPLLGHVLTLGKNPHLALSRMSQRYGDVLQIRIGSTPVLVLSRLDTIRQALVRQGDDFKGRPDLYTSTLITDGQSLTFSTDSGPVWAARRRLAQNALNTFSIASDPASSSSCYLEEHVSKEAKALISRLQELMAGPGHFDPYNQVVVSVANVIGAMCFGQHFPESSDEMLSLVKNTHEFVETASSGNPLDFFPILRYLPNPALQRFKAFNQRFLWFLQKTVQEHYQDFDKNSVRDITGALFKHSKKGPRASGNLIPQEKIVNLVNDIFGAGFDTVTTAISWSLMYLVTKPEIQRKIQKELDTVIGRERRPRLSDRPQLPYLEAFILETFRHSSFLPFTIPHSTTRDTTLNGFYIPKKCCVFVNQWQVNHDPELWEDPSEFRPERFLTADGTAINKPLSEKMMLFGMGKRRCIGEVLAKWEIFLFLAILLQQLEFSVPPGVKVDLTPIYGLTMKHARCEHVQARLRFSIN
The data set is described as follows: Cytochrome oxidase P450 inhibition test, CYP1A2. Conditions: liver microsome incubation. The data set is classed as in vitro ADME. The procedure:
as §1

In another data set the target is T3, CYP2D6 (Homo sapiens, UniProt P10635).
T3 construct: from tissue; host or cells: liver microsome
The data set can be described thus: Cytochrome oxidase P450 inhibition test, CYP2D6. It counts as in vitro ADME. Conditions: liver microsome incubation. The protocol: as §1

Another data set deals with DOHH-2 cell strain. The data set is described as follows: Tumor cell proliferation inhibition assay (CellTiter-Glo), DOHH-2. Particulars: Homo sapiens, 120 h, DOHH-2 cells, 5-day treatment. It counts as cell-based. A digest of the protocol:
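Read-out: CellTiter-Glo ATP luminescence after 5-day compound exposure at 37° C./5% CO2. Dosing began 24 h post-seeding, 10 μM top, 1:3 dilutions, 10 points; DMSO-treated cells as reference.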

Another data set deals with T4, CYP2C9 (Homo sapiens, UniProt P11712).
T4 construct: from tissue; host or cells: liver microsome
The data set can be described thus: Cytochrome oxidase P450 inhibition test, CYP2C9. The data set is classed as in vitro ADME. Conditions: liver microsome incubation. The protocol:
as §1

[4] abbreviates: IC50 score, read-out: Tumor cell 5-day relative growth inhibition (DOHH-2) (nM), score.
[5] abbreviates: IC50 value, read-out: Tumor cell 5-day relative growth inhibition (DOHH-2).

Molecules are shown by their SMILES. Read-outs that look alike come from different tables or passages of the source.

T4 sequence (P11712 whole entry): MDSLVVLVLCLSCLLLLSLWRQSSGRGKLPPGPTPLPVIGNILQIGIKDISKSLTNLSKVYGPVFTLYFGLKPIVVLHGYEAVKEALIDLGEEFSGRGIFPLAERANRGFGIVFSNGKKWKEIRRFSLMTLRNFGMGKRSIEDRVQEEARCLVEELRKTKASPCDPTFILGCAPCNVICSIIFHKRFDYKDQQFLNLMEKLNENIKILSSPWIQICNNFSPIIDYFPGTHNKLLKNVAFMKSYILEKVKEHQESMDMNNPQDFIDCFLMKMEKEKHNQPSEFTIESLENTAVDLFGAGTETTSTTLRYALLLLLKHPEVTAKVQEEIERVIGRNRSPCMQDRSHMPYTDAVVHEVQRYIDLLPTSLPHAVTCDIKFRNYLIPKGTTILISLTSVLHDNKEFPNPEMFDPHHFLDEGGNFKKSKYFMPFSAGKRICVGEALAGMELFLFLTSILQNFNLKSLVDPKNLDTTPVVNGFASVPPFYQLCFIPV
T1 sequence (P33261 whole entry): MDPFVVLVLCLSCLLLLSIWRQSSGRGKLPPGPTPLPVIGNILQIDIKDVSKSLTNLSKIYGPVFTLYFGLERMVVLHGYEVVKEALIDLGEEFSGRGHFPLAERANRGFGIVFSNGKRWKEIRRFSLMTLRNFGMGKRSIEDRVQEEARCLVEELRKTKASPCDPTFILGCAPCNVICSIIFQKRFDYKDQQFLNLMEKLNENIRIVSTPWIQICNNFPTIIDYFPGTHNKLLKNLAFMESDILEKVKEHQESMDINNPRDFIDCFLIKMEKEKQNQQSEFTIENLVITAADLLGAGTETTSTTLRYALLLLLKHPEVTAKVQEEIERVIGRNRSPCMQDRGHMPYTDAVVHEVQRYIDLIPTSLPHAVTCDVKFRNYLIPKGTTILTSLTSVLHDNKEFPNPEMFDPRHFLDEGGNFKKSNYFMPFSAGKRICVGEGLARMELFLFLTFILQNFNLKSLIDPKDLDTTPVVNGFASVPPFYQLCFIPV
T3 sequence (P10635 whole entry): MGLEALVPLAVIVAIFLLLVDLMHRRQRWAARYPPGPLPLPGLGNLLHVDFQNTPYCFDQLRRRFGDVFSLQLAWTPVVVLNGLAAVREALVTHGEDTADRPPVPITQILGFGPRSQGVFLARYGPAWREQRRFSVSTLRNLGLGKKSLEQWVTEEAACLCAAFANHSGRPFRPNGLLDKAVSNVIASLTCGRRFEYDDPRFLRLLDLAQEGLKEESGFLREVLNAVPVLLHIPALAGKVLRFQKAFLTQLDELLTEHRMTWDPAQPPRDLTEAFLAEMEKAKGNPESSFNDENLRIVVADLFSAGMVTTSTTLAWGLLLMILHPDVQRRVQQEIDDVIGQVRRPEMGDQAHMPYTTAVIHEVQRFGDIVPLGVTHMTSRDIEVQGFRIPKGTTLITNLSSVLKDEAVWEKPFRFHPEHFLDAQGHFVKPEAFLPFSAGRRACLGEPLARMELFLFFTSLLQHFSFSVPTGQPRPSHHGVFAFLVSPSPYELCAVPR

One may read the half-life as the time needed for the level to fall by half in the phase considered. Regarding `Cn1cc2c(n1)c(=O)n(-c1cccnc1C1CC1)c1cc(Cl)c(F)cc21` [Compound B340], in data set [1], the half-life at 1 μM was over 217 min.
As for `Cn1cc2c(n1)c(=O)n(-c1cccc3[nH]ncc13)c1cc(Cl)c(F)cc21` [Compound B257], the “Tumor growth inhibition percentage (TGI)” value in data set [2] (PO 0.3 mg/kg once a day) is “once a day TGI = 66.25%”; in data set [2] (PO 1 mg/kg once a day), “once a day TGI = 90.06%”; in data set [2] (PO 3 mg/kg once a day), “once a day TGI = 97.08%”.
For the compound `Cn1cc2c(n1)c(=O)n(-c1ccccc1Cl)c1nc(C(F)(F)F)ccc21` [Compound B182], the half-life at 1 μM in data set [3] was 20.4 min.
Regarding `Cn1cc2c(n1)c(=O)n(-c1cccc3[nH]ncc13)c1nc(C(F)(F)F)ccc21` [Compound B181], the IC50 was over 30 µM on CYP2C19; over 30 µM against CYP1A2; over 30 µM against CYP2D6; 500 to 2000 nM in the data set with DOHH-2 cell strain (setting [4]); 1040 nM in the data set on DOHH-2 cell strain (setting [5]); over 30 µM against CYP2C9. Besides, the figures for the half-life at 1 μM in data set [3] and in data set [1] were over 145 min and over 217 min, respectively.
For `Cc1ncccc1-n1c(=O)c2nn(C)cc2c2ccc(C(F)(F)F)nc21` (single isomer, unassigned) [Compound B180], the IC50 is over 10 µM against CYP2C19; over 10 µM at CYP1A2; over 10 µM at CYP2D6; under 500 nM in the data set with DOHH-2 cell strain (setting [4]); 134 nM in the data set on DOHH-2 cell strain (setting [5]); over 10 µM against CYP2C9.
On to `Cn1cc2c(n1)c(=O)n(-c1cccc3[nH]ncc13)c1cc(Cl)ccc21` [Compound B60], for which the IC50 on CYP2C19 was over 10 µM; against CYP1A2, over 10 µM; at CYP2D6 it was over 10 µM; in the data set with DOHH-2 cell strain (setting [4]), under 500 nM; in the data set with DOHH-2 cell strain (setting [5]) it was 39.1 nM; against CYP2C9, over 10 µM. Besides, the half-life at 1 μM in data set [3] is over 145 min.
As for `Cn1cc2c(n1)c(=O)n(-c1cccnc1)c1cc(Cl)ccc21` [Compound B12], the IC50 is over 10 µM against CYP2C19; over 10 µM on CYP1A2; over 10 µM against CYP2D6; 500 to 2000 nM in the data set with DOHH-2 cell strain (setting [4]); 1110 nM with DOHH-2 cell strain (setting [5]); over 10 µM against CYP2C9. In data set [3], the half-life at 1 μM was over 145 min.
For `Cn1cc2c(n1)c(=O)n(-c1cccc(O)c1)c1nc(C(F)(F)F)ccc21` [Compound B148], the half-life at 1 μM in data set [3] was determined as 142 min. The IC50 with DOHH-2 cell strain (setting [4]) is under 500 nM; in the data set on DOHH-2 cell strain (setting [5]), 443 nM.

Values taken from US20240391923A1, “METHIONINE ADENOSYLTRANSFERASE 2A INHIBITOR FOR TREATING MTAP DELETION-TYPE CANCER” (SUZHOU GENHOUSE BIO CO., LTD., priority 2022, published 2024).
